Reference: patent US6552073B1, “Compounds and methods of treating cell proliferative diseases” (Exonhit Therapeutics SA, priority 2002, dated 2003)
Entries after “also recorded” stand apart in the source; their conditions may differ.

How the values were obtained:
[1] = tested on: NIH3T3 cells transfected with RasV12; assay: Colony formation assay in the presence of constitutively activated Ras (RasV12); format: cell-based, mouse; parameters: key to Colony formation: −: no effect of the compound was observed; +: an effect of the compound was observed; settings: for Ras-dependent neoR clones formation: NIH3T3, RasV12; for Colony formation: NIH3T3, neoR colonies
Procedure: c) Ras/Rac-dependant Signaling Pathway Analysis
The impact of the compounds on Ras and Rac signaling pathways was analysed with two reporter systems described by Imler (Nature 1988) and Lin (Science, 1995) respectively on one hand, and by a colony formation assay in the presence of constitutively activated Ras (RasV12) and Rac (RacV12) on the other hand. For this latter experiment, fifty percent confluent NIH3T3 cells in a 10 cm diameter petri dish were transfected with 0.5 μg pSV2-RasV12 or 0.5 μg pEXV RacV12 plasmids plus 100 ng of pSV2-neomycin plasmid using Lipofectamine-Plus reagent (Invitrogen) according to the manufacturer's instructions. Forty-eight hours later, cells were trypsinised, splitted to 1/3, and incubated in the presence of complete medium supplemented with 400 μg/ml geneticin (Invitrogen) and different doses of compound (1, 10, 17.5, 25 and 50 μM) until emerging resistant clones appear (2-3 weeks). The medium was renewed every 3 days. Colonies with a minimum of 50 cells were counted after staining with Fuschin 2%.

MDA-MB-231 cells = assay: Matrigel invasion assay (Boyden chamber); format: cell-based, human; settings: MDA-MB-231 cells
Procedure: d) Migration and Matrigel Invasion Assay
Chemoinvasion assay was performed in Boyden chamber as described by Albini et al (Cancer Res, 1987) with some modifications. Polycarbonate membranes with 8μm pores were coated with matrigel (125 μg/cm^2) at room temperature for 48 h. Two hours before experiments, the matrix was […] with serum-free medium containing 0.1% BSA.
One day after seeding, 10^6 MDA-MB-231 cells were treated overnight with different concentrations of compounds (1, 10, 17.5, 25 and 50 μM). Cells were collected with Versene (Invitrogen), counted with trypan blue exclusion, rinsed twice in serum-free medium containing 0.1% BSA and resuspended in serum-free medium containing 0.1% BSA plus the appropriate concentration of compound. 10^5 treated cells were placed in the upper chamber. Medium containing 10% of FBS plus the appropriate concentration of compound was placed in the lower chamber as a chemoattractant. The Boyden chamber was incubated 6 hours at 37° C. before the cells were fixed and stained with Diff-Quick (Dade-Berhing). Cells on the upper part of the filters were removed using a cotton swab. Cells on the underside of the filters were visualised and counted under light microscope. The migration assay was performed the same way, using non-coated filters.

NIH3T3 = assay: Cytoskeleton analysis, actin staining; format: cell-based, mouse; parameters: key to Cell architecture modification, actin staining NIH3T3, ruffles (R) / Cell architecture modification, actin staining NIH3T3, focal complexes (FC): a decrease in cellular ruffles density was noted R−; an increase in focal complexes density was noted FC+
Procedure: (§1) Since major rearrangements of cytoskeleton are observed in tumor cells and since the small GTPases are known to regulate these events, analysis of actin cytoskeleton was performed. Subconfluent cells seeded onto coverslips were treated with different concentration of compound (1, 10, 17.5, 25 and 50 μM) or vehicle for 24 h, before being fixed in 4% formaldehyde for 15 min., permeabilized in 0.2% Triton X100 for 5 minutes and incubated in PowerBlock (Biogenex) for 10 min. Actin filaments were stained with 0.5 μg/ml fluorescein isothiocyanate (FITC)-labelled phalloidin for 1 hour. Analysis was performed using an inverted fluorescent microscope.

HCT116 = assay: Cytoskeleton analysis, actin staining; format: cell-based, human
Procedure: as §1

H460 = assay: Cytoskeleton analysis, actin staining; format: cell-based, human
Procedure: as §1

MDA231 = assay: Cytoskeleton analysis, actin staining; format: cell-based, human
Procedure: as §1

MMP-2 = assay: Gelatin zymography; format: cell-based, human; settings: zymogram gel, MDA-MB-231 supernatant
Procedure: (§2) The activity of the metalloproteases MMP-2 and MMP-9 was assayed using gelatinolytic zymography according to Lambert (Surgery 1997). Briefly, MDA-MB-231 cells were incubated overnight in serum-free medium supplemented with ITS liquid supplement (Sigma) with different concentrations of compound (1, 10, 17.5, 25 and 50 μM). Supematant was collected and concentrated with Ultrafree 30 kDA (Millipore). Equal amount of proteins, as determined by Bradford measurement, were loaded onto a 10% w/v polyacrylamide gel containing 1% gelatin and 0.1% SDS (Novex). After electrophoresis, gels were washed in Novex Zymogram Renaturing buffer for 30 min at room temperature and incubated overnight at 37° C. in Novex Zymogram developing buffer. Gels were stained in Coomassie Brilliant Blue G-250, and the gelatinolytic activity was visualized as a clear band against the blue background of the stained gelatin.

MMP-9 = assay: Gelatin zymography; format: cell-based, human; settings: zymogram gel, MDA-MB-231 supernatant
Procedure: as §2

CCCc1ccccc1OCCCCCOc1coc(CO)cc1=O [EH18900, 5-[5-(2-Propylphenyloxy)pentyloxy]-2-(hydroxymethyl)-4H-pyran-4-one]
Ras-dependent neoR clones formation [1]: inhibited | Colony formation [1]: + | concentration at which an increase in invasive properties was noted (MDA-MB-231 cells): 50 µM | Cell architecture modification, actin staining NIH3T3, focal complexes (FC) (NIH3T3): FC+ | Cell architecture modification, actin staining NIH3T3, ruffles (R) (NIH3T3): R− | Cell architecture modification, actin staining HCT116, general observation (HCT116): cell spreading | Cell architecture modification, actin staining H460, general observation (H460): cell spreading

CCCc1c(OCCCCCOc2coc(CO)cc2=O)ccc(Cl)c1Cl [EH22900, 5-[5-(3,4-Dichloro-2-propylphenyloxy)pentyloxy]-2-(hydroxymethyl)-4H-pyran-4-one]
Ras-dependent neoR clones formation [1]: inhibited | Colony formation [1]: + | melting point: 85 to 86 °C | Cell architecture modification, actin staining NIH3T3, focal complexes (FC) (NIH3T3): FC+ | Cell architecture modification, actin staining NIH3T3, ruffles (R) (NIH3T3): R− | Cell architecture modification, actin staining MDA231, general observation (MDA231): increased MDA-MB-231 spreading; also recorded: cell spreading | concentration of dose-dependant inhibition of MMP-2 (MMP-2): 5 µM | concentration of dose-dependant inhibition of MMP-9 (MMP-9): 5 µM

C/C=C/c1oc(CO)cc(=O)c1OCCCCCOc1ccc(Cl)c(Cl)c1CCC [EH31101, (E)-3-[5-(3,4-Dichloro-2-propylphenyoxy)pentyloxy]-6-(hydroxymethyl)-2-(propen-1-yl)-4H-pyran-4-one]
Colony formation [1]: − | concentration at which an increase in invasive properties was noted (MDA-MB-231 cells): 10 µM | melting point: 75 to 76 °C | Cell architecture modification, actin staining NIH3T3, focal complexes (FC) (NIH3T3): FC+ | Cell architecture modification, actin staining NIH3T3, ruffles (R) (NIH3T3): R− | concentration of dose-dependant inhibition of MMP-2 (MMP-2): 0.1 µM | concentration of dose-dependant inhibition of MMP-9 (MMP-9): 0.1 µM
